Source: patent US7825256B2, “Inducible nitric oxide synthase dimerization inhibitors” (Kalypsys, Inc., priority 2004, dated 2010)
Structures can show the parent of a compound that is named as a salt.

Molecular target: T1, hiNOS (Homo sapiens, UniProt P35228)
T1 construct: expressed in transfected cells; host or cells: HEK293
Test: DAN assay, hiNOS expressed in transiently transfected HEK293 cells
Type: cell-based
Settings: HEK293 cells transiently transfected with hiNOS
From the text: The source of nitric oxide synthase (NOS) enzyme can be generated in several ways including induction of endogenous iNOS using cytokines and/or lipopolysaccharide (LPS) in various cell types known in the art. Alternatively, the gene encoding the enzyme can be cloned and the enzyme can be generated in cells via heterologous expression from a transient or stable expression plasmid with suitable features for protein expression as are known in the art. Enzymatic activity (nitric oxide production) is calcium independent for iNOS, while the constitutive NOS isoforms, nNOS and eNOS, become active with the addition of various cofactors added to cellular media or extract as are well known in the art. Enzymes specified in Table 1 were expressed in HEK293 cells transiently transfected with the indicated NOS isoform.
A major metabolic pathway for nitric oxide is to nitrate and nitrite, which are stable metabolites within tissue culture, tissue, plasma, and urine (S Moncada, A Higgs, N Eng J Med 329, 2002 (1993)).
The level of nitrate or nitrite in the specimen can be quantified by any method known in the art which provides adequate sensitivity and reproducibility. A variety of protocols have also been described for detecting and quantifying nitrite and nitrate levels in biological fluids by ion chromatography (e.g., S A Everett et al., J. Chromatogr. 706, 437 (1995); J M Monaghan et al., J. Chromatogr. 770, 143 (1997)), high-performance liquid chromatography (e.g., M Kelm et al., Cardiovasc. Res. 41, 765 (1999)), and capillary electrophoresis (M A Friedberg et al., J. Chromatogr. 781, 491 (1997)). For example, 2,3-diaminonaphthalene reacts with the nitrosonium cation that forms spontaneously from NO to form the fluorescent product […]. Using 2,3-diaminonaphthalene (“DAN”), researchers have developed a rapid, quantitative fluorometric assay that can detect from 10 nM to 10 μM nitrite and is compatible with a multi-well microplate format. […] DAN reacts with nitrite ion and gives fluorescent […] (M C Carré et al., Analysis 27, 835-838 (1999)). Table 1 provides the test results of various compounds of the subject invention using the DAN assay.
A specimen can be processed prior to determination of nitrate or nitrite as required by the quantification method, or in order to improve the results, or for the convenience of the investigator. For example, processing can involve centrifuging, filtering, or homogenizing the sample. If the sample is whole blood, the blood can be centrifuged to remove cells and the nitrate or nitrite assay performed on the plasma or serum fraction. If the sample is tissue, the tissue can be dispersed or homogenized by any method known in the art prior to determination of nitrate or nitrite. It may be preferable to remove cells and other debris by centrifugation or another method and to determine the nitrate or nitrite level using only the fluid portion of the sample, or the extracellular fluid fraction of the sample. The sample can also be preserved for later determination, for example by freezing of urine or plasma samples. When appropriate, additives may be introduced into the specimen to preserve or improve its characteristics for use in the nitrate or nitrite assay.
The “level” of nitrate, nitrite, or other NO-related product usually refers to the concentration (in moles per liter, micromoles per liter, or other suitable units) of nitrate or nitrite in the specimen, or in the fluid portion of the specimen. However, other units of measure can also be used to express the level of nitrate or nitrite. For example, an absolute amount (in micrograms, milligrams, nanomoles, moles, or other suitable units) can be used, particularly if the amount refers back to a constant amount (e.g., grams, kilograms, milliliters, liters, or other suitable units) of the specimens under consideration. A number of commercially available kits can be used.

In the case of `Cn1cnc(CN(CCCNCc2ccc3c(c2)OCO3)c2nc(-n3ccnc3)ns2)c1` [Example 106, N′-Benzo[1,3]dioxol-5-ylmethyl-N-(3-imidazol-1-yl-[1,2,4]thiadiazol-5-yl)-N-(1-methyl-1H-imidazol-4-ylmethyl)-propane-1,3-diamine], the EC50 is reported as under 1000 nM.
`CCOC(=O)CC(NCCNCc1ccc2c(c1)OCO2)c1cc(C)nc(-n2ccnc2)n1` (stereo not shown) [Example 135, Benzo[1,3]dioxol-5-ylmethyl-{2-[2-ethoxycarbonyl-1-(2-imidazol-1-yl-6-methyl-pyrimidin-4-yl)-ethylamino]-ethyl}-ammonium trifluoroacetate] gave an EC50 of under 1000 nM.
In the case of `C[C@H](Nc1nc(-n2ccnc2)ns1)C(=O)NCCc1ccc2c(c1)OCO2` [Example 23, (S)—N-(2-Benzo[1,3]dioxol-5-yl-ethyl)-2-(3-imidazol-1-yl-[1,2,4]thiadiazol-5-ylamino)-propionamide], the EC50 is reported as under 1000 nM.
Compound `NC(=O)C1CCC(C(=O)NCCc2ccc3c(c2)OCO3)N1c1nc(-n2ccnc2)ns1` (stereo not shown) [Example 95] has an EC50 of under 1000 nM.
`CN(CCc1ccc2c(c1)OCO2)CCN(C)c1nc(-n2ccnc2)ns1` [Example 128, N-(2-Benzo[1,3]dioxol-5-yl-ethyl)-N′-(3-imidazol-1-yl-[1,2,4]thiadiazol-5-yl)-N,N′-dimethyl-ethane-1,2-diamine] was tested, and the EC50 was under 1000 nM.
`c1cn(-c2nsc(N(CCCNCc3ccc4c(c3)OCO4)C3CC3)n2)cn1` [Example 32, N′-Benzo[1,3]dioxol-5-ylmethyl-N-cyclopropyl-N-(3-imidazol-1-yl-[1,2,4]thiadiazol-5-yl)-propane-1,3-diamine] showed an EC50 of under 1000 nM.
Compound `N=C(CN(CCCNCc1ccc2c(c1)OCO2)c1nc(-n2ccnc2)ns1)NO` [Example 63, 2-[{3-[(Benzo[1,3]dioxol-5-ylmethyl)-amino]-propyl}-(3-imidazol-1-yl-[1,2,4]thiadiazol-5-yl)-amino]-N-hydroxy-acetamidine] has an EC50 of under 1000 nM.
In the case of `CNC(=O)CC(NCCNCc1ccc2c(c1)OCO2)c1cc(C)nc(-n2ccnc2)n1` (stereo not shown) [Example 136, Benzo[1,3]dioxol-5-ylmethyl-{2-[1-(2-imidazol-1-yl-6-methyl-pyrimidin-4-yl)-2-methylcarbamoyl-ethylamino]-ethyl}-ammonium trifluoroacetate], the EC50 is reported as under 1000 nM.
Work on `CCCN(CCCNCc1ccc2c(c1)OCO2)c1nc(-n2ccnc2)ns1` [Example 31, N′-Benzo[1,3]dioxol-5-ylmethyl-N-(3-imidazol-1-yl-[1,2,4]thiadiazol-5-yl)-N-propyl-propane-1,3-diamine] yielded an EC50 of under 1000 nM.
`Cc1cc(C2CCCCN2CCNCc2ccc3c(c2)OCO3)nc(-n2ccnc2)n1` (stereo not shown) [Example 142, Benzo[1,3]dioxol-5-ylmethyl-{2-[2-(2-imidazol-1-yl-6-methyl-pyrimidin-4-yl)-piperidin-1-yl]-ethyl}-amine] gave an EC50 of under 1000 nM.
With `Cc1cc(C2CCCCN2CCN(C)Cc2ccc3c(c2)OCO3)nc(-n2ccnc2)n1` (stereo not shown) [Example 134] the EC50 was under 1000 nM.
In the case of `CCOC(=O)CN(CCCN(C)Cc1ccc2c(c1)OCO2)c1nc(-n2ccnc2)ns1` [Example 58, [[3-(Benzo[1,3]dioxol-5-ylmethyl-methyl-amino)-propyl]-(3-imidazol-1-yl-[1,2,4]thiadiazol-5-yl)-amino]-acetic acid ethyl ester], the EC50 is reported as under 1000 nM.
`NC(=O)CN(CCCNCc1ccc2c(c1)OCO2)c1nc(-n2ccnc2)ns1` [Example 54, 2-[{3-[(Benzo[1,3]dioxol-5-ylmethyl)-amino]-propyl}-(3-imidazol-1-yl-[1,2,4]thiadiazol-5-yl)-amino]-acetamide] gave an EC50 of under 1000 nM.
In the case of `O=C(O)CN(CCCNCc1ccc2c(c1)OCO2)c1nc(-n2ccnc2)ns1` [Example 55, [{3-[(Benzo[1,3]dioxol-5-ylmethyl)-amino]-propyl}-(3-imidazol-1-yl-[1,2,4]thiadiazol-5-yl)-amino]-acetic acid], the EC50 is reported as under 50000 nM.
In the case of `CNC(=O)CN(CCCNCc1ccc2c(c1)OCO2)c1nc(-n2ccnc2)ns1` [Example 56, 2-[{3-[(Benzo[1,3]dioxol-5-ylmethyl)-amino]-propyl}-(3-imidazol-1-yl-[1,2,4]thiadiazol-5-yl)-amino]-N-methyl-acetamide], the EC50 is reported as under 1000 nM.
`Cc1cc(C(C)(C)NCCNCc2ccc3c(c2)OCO3)nc(-n2ccnc2)n1` [Example 77, N-1-(2-(2-(1H-Imidazol-1-yl)-6-methylpyrimidin-4-yl)propan-2-yl)-N-2-(benzo[d][1,3]dioxol-5-ylmethyl)ethane-1,2-diamine hydrochloride] showed an EC50 of under 1000 nM.
In the case of `Cc1cc(CN(CC(N)=O)C(=O)NCCc2ccc3c(c2)OCO3)nc(-n2ccnc2)n1` [Example 70, (2-[3-(2-Benzo[1,3]dioxol-5-yl-ethyl)-1-(2-imidazol-1-yl-6-methyl-pyrimidin-4-ylmethyl)-ureido]-acetamide)], the EC50 is reported as under 1000 nM.
`CN(CCCNCc1ccc(F)c(F)c1)c1nc(-n2ccnc2)ns1` [Example 9, N′-(3,4-Difluro-benzyl)-N-(3-imidazol-1-yl-[1,2,4]thiadiazol-5-yl)-N-methyl-propane-1,3-diamine] showed an EC50 of over 50000 nM.
With `COc1cc(CN2CCCC2C(=O)NCc2cc(C)nc(-n3ccnc3)n2)cc(OC)c1` (stereo not shown) [Example 110, 1-(3,5-Dimethoxy-benzyl)-pyrrolidine-2-carboxylic acid (2-imidazol-1-yl-6-methyl-pyrimidin-4-ylmethyl)-amide] the EC50 was over 50000 nM.
In the case of `COc1ccc(CNCCCN(C)c2nc(-n3ccnc3)ns2)cc1OC` [Example 22, N′-(3,4-Dimethoxy-benzyl)-N-(3-imidazol-1-yl-[1,2,4]thiadiazol-5-yl)-N-methyl-propane-1,3-diamine], the EC50 is reported as over 50000 nM.
With `O=C(NCCc1ccc2c(c1)OCO2)[C@H]1Cc2ccccc2CN1c1nc(-n2ccnc2)ns1` [Example 129, (R)-2-(3-Imidazol-1-yl-[1,2,4]thiadiazol-5-yl)-1,2,3,4-tetrahydro-isoquinoline-3-carboxylic acid (2-benzo[1,3]dioxol-5-yl-ethyl)-amide] the EC50 was under 1000 nM.
For `CN(CCCN(C)c1nc(-n2ccnc2)ns1)Cc1ccc2c(c1)OCCO2` [Example 82, N-(2,3-Dihydro-benzo[1,4]dioxin-6-ylmethyl)-N′-(3-imidazol-1-yl-[1,2,4]thiadiazol-5-yl)-N,N′-dimethyl-propane-1,3-diamine], the EC50 was under 1000 nM.
In the case of `Oc1ccc(CN(CCCNCc2ccc3c(c2)OCO3)c2nc(-n3ccnc3)ns2)cc1` [Example 103, 4-{[{3-[(Benzo[1,3]dioxol-5-ylmethyl)-amino]-propyl}-(3-imidazol-1-yl-[1,2,4]thiadiazol-5-yl)-amino]-methyl}-phenol], the EC50 is reported as under 1000 nM.
`CN(CCCNCCc1ccc2c(c1)OCO2)c1nc(-n2ccnc2)ns1` [Example 87, N′-(2-Benzo[1,3]dioxol-5-ethyl)-N-(3-imidazol-1-yl-[1,2,4]thiadiazol-5-yl)-N-methyl-propane-1,3-diamine] was tested, and the EC50 was under 1000 nM.
In the case of `O=C(NCCc1ccc2c(c1)OCO2)[C@H]1CCCCN1c1nc(-n2ccnc2)ns1` [Example 26, (R)-1-(3-Imidazol-1-yl-[1,2,4]thiadiazol-5-yl)-piperidine-2-carboxylic acid (2-benzo[1,3]dioxol-5-yl-ethyl)-amide], the EC50 is reported as under 1000 nM.
In the case of `CN(CCCNCc1ccncc1)c1nc(-n2ccnc2)ns1` [Example 21, N-(3-Imidazol-1-yl-[1,2,4]thiadiazol-5-yl)-N-methyl-N′-pyridin-4-ylmethyl-propane-1,3-diamine], the EC50 is reported as over 50000 nM.
`CN(CCCN(C)c1nc(-n2ccnc2)ns1)Cc1ccc2c(c1)OCO2` [Example 79, N-Benzo[1,3]dioxol-5-ylmethyl-N′-(3-imidazol-1-yl-[1,2,4]thiadiazol-5-yl)-N,N′-dimethyl-propane-1,3-diamine] showed an EC50 of under 1000 nM.
`CN(CCCNCc1ccc2c(c1)OCCO2)c1nc(-n2ccnc2)ns1` [Example 16, N′-(2,3-Dihydro-benzo[1,4]dioxin-6-ylmethyl)-N-(3-imidazol-1-yl-[1,2,4]thiadiazol-5-yl)-N-methyl-propane-1,3-diamine] gave an EC50 of under 1000 nM.
